Drawing on PubChem BioAssay (NCI), this text covers GI50 and TGI for eight compounds.

Values joined by “and” are separate entries in the source; they are usually repeats but may differ in a detail not shown here. Equal values may be shown once.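 All cell lines were grown in 96-well plates and treated with compound for 48 hours. Here, GI50 denotes the concentration required for 50% inhibition of growth. TGI denotes the concentration required for complete inhibition of growth.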 Where only a bound is given, the exact number is not on record here.

Holding throughout (test): growth of human tumour cells (NCI), 48 h
The subject of test [1] is A498 renal.
The test system of test [2] is ACHN renal.
The test system of test [3] is COLO 205 colon.
Test [4] concerns HOP-62 NSCLC.
Test [5] relates to LOX IMVI melanoma.
For test [6], the system named is OVCAR-5 ovarian.
The subject of test [7] is SF-295 CNS.
Test [8] relates to SK-MEL-2 melanoma.
Test [9] deals with SK-OV-3 ovarian.
Test [10] has as its system SN12C renal.

As for `CNc1ncc2cc(Oc3ccc(F)cc3F)c(=O)n(C)c2n1`, the GI50 in test [1] was 11.9 µM; in test [2], above 25 µM; in [3], above 25 µM; in test [4] it was above 25 µM; in test [5], above 25 µM; in test [6], above 25 µM. Besides, the GI50 in test [7], in [8], in test [9] and in [10] was above 25 µM each time. For the same compound, the TGI in test [1], in [2], in test [3], in [4], in test [5] and in test [6] was above 25 µM throughout. Moreover, the TGI in [7], in test [8], in [9] and in test [10] was above 25 µM each time.
In the case of `CCC(=O)c1c(C(F)(F)F)n([O-])c2ccccc2[n+]1=O`, the GI50 in [1] is 2.67 µM; in test [2] it was 1.09 µM; in [3] it was 2.06 µM; in test [4] it was 0.7 µM; in test [5], 1.39 µM; in test [6], 3.89 µM. In addition, the GI50 in [7] is 1.59 µM; in [8], 14.9 µM; in test [9], 3.05 µM; in test [10], 1.98 µM. In addition, the TGI in test [1] came to 9.03 µM; in test [2], 3.13 µM; in test [3] it was 6.51 µM; in [4], 3.54 µM; in test [5], 3.38 µM; in test [6], 13.1 µM. Moreover, the TGI in test [7] is 7.29 µM; in [8] it was above 100 µM; in test [9], 14 µM; in test [10] it was 7.29 µM.
For `Cc1c(C(N)=O)sc2c1c(=O)n(Cc1ccccc1)c1nnc(S(=O)(=O)CC(=O)Nc3ccc(Cl)cc3)n21`, the GI50 in [1] is 1.26 µM; in test [2] it was 4.63 µM; in [3] it was 10.7 µM; in test [4], 2.51 µM; in test [5], 6.15 µM; in test [6], 10.9 µM. The GI50 in test [7] was 3.28 µM; in test [8] it was 2.83 µM; in [9] it was 3.24 µM; in test [10], 4.67 µM. For the same compound, the TGI in test [1] turned out to be 4.21 µM; in test [2], 20.6 µM; in test [3], 27.5 µM; in [4], 5.99 µM; in test [5], 20.6 µM; in [6], 52.1 µM. The TGI is 26.2 µM in test [7], 7.18 µM in [8], 7.81 µM in test [9] and 28.2 µM in test [10].
For `O=[N+]([O-])c1cc2c(ccc3occc32)o1`, the GI50 was 2.21 µM in [1]; 0.561 µM in test [2]; 1.57 µM in test [3]; 3.94 µM in test [4]; 1.25 µM in test [5]; 3.5 µM in [6]. Further, the GI50 in [7] is 2.04 µM; in test [8], 2.03 µM; in test [9], 3.03 µM; in [10] it was 2.96 µM. For the same compound, the TGI is 4.58 µM in [1]; 8.03 µM in [2]; 3.12 µM in [3]; 21.5 µM in [4]; 3.85 µM in [5]; 15.4 µM in test [6]. For the same compound, the TGI is 5.75 µM in [7], 4.56 µM in test [8], 9.66 µM in test [9] and above 100 µM in [10].
In the case of `O=C(CN1C(=O)S/C(=C\C(Cl)=C\c2ccccc2)C1=O)NCCCn1ccnc1`, the GI50 in test [1] was 1.28 µM; in [2], 1.99 µM; in test [3] it was 2.1 µM; in [4], 3.45 µM; in [5], 1.37 µM; in [6] it was 2.4 µM. The GI50 in test [7] was 10 µM; in [8], 2.8 µM; in test [9], 5.23 µM; in test [10], 2.26 µM. The TGI was found to be 5.57 µM in test [1]; 5.22 µM in test [2]; 4.82 µM in test [3]; 22.5 µM in test [4]; 2.75 µM in test [5]; 6.47 µM in test [6]. Moreover, the TGI in test [7] was 24.4 µM; in test [8], 9.55 µM; in test [9] it was above 100 µM; in test [10], 7.49 µM.
Turning to `NS(=O)(=O)c1ccc(N2N=C(c3cccs3)CC2c2ccccc2O)cc1` (centres undefined), the GI50 in test [1] was 0.835 µM; in [2], 2.9 µM; in test [3] it was 0.577 µM; in test [4], 2.67 µM; in test [5], 1.25 µM; in test [6] it was 1.25 µM. Moreover, the GI50 in test [7] was 0.829 µM; in [8] it was 1.2 µM; in test [9], 1.18 µM; in test [10] it was 1.2 µM. Further, the TGI in test [1] turned out to be 4.01 µM; in test [2], 13 µM; in test [3], 1.88 µM; in test [4], 9.46 µM; in test [5] it was 5.22 µM; in test [6], 6.11 µM. The TGI is 2.26 µM in test [7], 5.16 µM in test [8], 10.1 µM in test [9] and 4.78 µM in test [10].
`O=C(O)C1CC2CC(=O)C1C2` (centres undefined): the TGI in [1], in test [2], in [3], in test [4], in test [5] and in [6] was above 100 µM each time. Also, the TGI in test [7], in [8], in test [9] and in test [10] was above 100 µM each time.
In the case of `COc1cc2c3cc1Oc1c(OC)c(OC)cc4c1C(Cc1ccc(cc1)Oc1cc(ccc1O)CC3N(C)CC2)N(C)CC4` (centres undefined), the TGI is 32.9 µM in [1]; 46.1 µM and 15.8 µM in test [2]; 23 µM and 11.3 µM in [3]; 34.7 µM in test [4]; 19.1 µM in [5]; 67.4 µM and 29.6 µM in test [6]. For the same compound, the TGI in test [7] is 28.9 µM and 21.4 µM; in test [8], 27 µM and 24.8 µM; in test [9], 69.6 µM and 86.2 µM; in test [10], 61.3 µM and 30.6 µM. Further, the GI50 was 14.5 µM and 4.72 µM in test [2]; 11 µM and 1.52 µM in test [3]; 6.39 µM and 2.56 µM in [5]; 15.4 µM and 7.68 µM in [7].
